Source: patent US4164448A, “Activation of cholesterol oxidase for cholesterol assay” (Boehringer Mannheim GmbH, priority 1973, dated 1979)
Where two headings read alike, the source gives them in different places.

How the values were obtained:
cholesterol oxidase [1] = test: Activation of cholesterol oxidase by surface-active compounds; type: biochemical; conditions: for appropriate concentration range of surface-active compound for activation: too small an amount gives no activation, too large denatures the enzyme; for activation of cholesterol oxidase: result in words
Source text: In addition, other surface-active substances with lipophilic and hydrophilic properties which contain at least one hydroxyl group, can also be used. Examples of such compounds include ethanol, butyl-diglycol and hexyleneglycol.
The appropriate concentration range, as well as the optimum concentration, can be experimentally determined for all appropriate surface-active agents.

cholesterol oxidase [2] = conditions: 1 M ammonium sulfate, 33° C.
Procedure: The experiments were carried out with an octyl-phenol-ethylene oxide adduct.

cholesterol oxidase [3] = test: Determination of cholesterol in serum with detergent-free cholesterol oxidase, extinction at 240 nm; type: biochemical; conditions: 0.4% in 0.5 M potassium phosphate buffer pH 7.5, 0.1 U enzyme; without surface-active agent 15 minutes were required
Procedure: 0.05 ml. of serum were added to 10 ml. 0.5 M potassium phosphate buffer of pH 7.5 which contained 0.4% hydroxypolyethoxydodecane. The extinction (E1) was read off at 240 nm in a suitable spectrophotometer and the reaction started with 0.02 ml. (0.1 U) of storage-stable cholesterol oxidase, freed from traces of detergent, in 1 M aqueous ammonium sulfate solution. After 3 minutes, the extinction (E2) was read off. The concentration of the cholestenone formed and thus of the cholesterol was given by the difference between the first and second readings, having regard to the molar extinction coefficients for […] at 240 nm. The measurement of a typical sample gave 62 mg.% free cholesterol and 167 mg.% total cholesterol (after saponification).
A comparative determination but without the addition of the surface-active agent required a reaction time of 15 minutes.

Compound | appropriate concentration range of surface-active compound for activation (cholesterol oxidase [1]) [wt.%] | activation of cholesterol oxidase (cholesterol oxidase [1]) | also measured
polyoxyethylene derivatives of sorbitol anhydrides | 0.15 to 0.6 | – | –
C[C@H](CCC(=O)O)[C@H]1CC[C@H]2[C@@H]3CC[C@@H]4C[C@H](O)CC[C@]4(C)[C@H]3C[C@H](O)[C@]12C [sodium desoxycholate] | 0.03 to 0.05 | – | –
OCCO [ethylene glycol] | – | no activation | –
OCC(O)CO [glycerol] | – | no activation | –
octyl-phenol-ethylene oxide adduct | 0.03 to 0.1 | – | Activity of cholesterol oxidase in %, referred to freshly prepared enzyme (cholesterol oxidase [2]; detergent 0.02%, storage period 10 days): 60%; Activity of cholesterol oxidase in %, referred to freshly prepared enzyme (cholesterol oxidase [2]; detergent 0.02%, storage period 22 days): 40%; Activity of cholesterol oxidase in %, referred to freshly prepared enzyme (cholesterol oxidase [2]; detergent 0.05%, storage period 10 days): 7%; Activity of cholesterol oxidase in %, referred to freshly prepared enzyme (cholesterol oxidase [2]; detergent 0.05%, storage period 22 days): 1%; Activity of cholesterol oxidase in %, referred to freshly prepared enzyme (cholesterol oxidase [2]; detergent 0.6%, storage period 10 days): 3%; Activity of cholesterol oxidase in %, referred to freshly prepared enzyme (cholesterol oxidase [2]; detergent 0.6%, storage period 22 days): 1%; Activity of cholesterol oxidase in %, referred to freshly prepared enzyme (cholesterol oxidase [2]; detergent amount not printed (column between 0.05% and 0.6%), storage period 10 days): 7%; Activity of cholesterol oxidase in %, referred to freshly prepared enzyme (cholesterol oxidase [2]; detergent amount not printed (column between 0.05% and 0.6%), storage period 22 days): 1%
CO [methanol] | – | no activation | –
OC1CCCCC1 [cyclohexanol] | – | no activation | –
hydroxypolyethoxydodecane | 0.15 to 0.6 | – | reaction time of the cholesterol determination (cholesterol oxidase [3]): 3 min
desoxycholates | – | Similarly good results | –
